Data from patent US5164300A, “Method for determining activity of retroviral protease” (Washington University, priority 1990, dated 1992).
Where a SMILES comes first, the peptide text is derived from it. [ ]: non-standard residue; d: D form. Phe(4-NO2) = N[C@@H](Cc1ccc([N+](=O)[O-])cc1)C(=O)O; Nle = CCCC[C@H](N)C(=O)O; 2Abz = Nc1ccccc1C(=O)O

What was measured:
HIV protease = biological target: T1, HIV protease (HIV-1 M:B_ARV2/SF2, UniProt P03369); assay: HPLC HIV protease assay (cleavage of peptide substrates); assay type: biochemical, human immunodeficiency virus (HIV)
T1 construct: synthetic [Aba67,Aba95] homodimer (Schneider and Kent) or cloned enzyme from E. coli, interchangeably
Method: HPLC Assay. The HPLC HIV protease assay was conducted using either synthetic HIV protease [Schneider and Kent, Cell 54, 363-368 (1988)] in which the two Cys residues (Cys^67, Cys^95) were replaced by the isosteric α-aminobutyric acid to eliminate the complications of free sulfhydryl groups, or cloned material expressed in E. coli. In all cases examined, the cleavage patterns and inhibition results were identical. Synthetic HPLC-purified protease (0.05 mg/ml) was dissolved in assay buffer (20 mM phosphate, 20% glycerol, 0.1% CHAPS, pH 6.4). 20 μl of 0.1 mM substrate was mixed with 20 μl assay buffer and 10 μl of HIV protease stock were added and then incubated at 25° for the desired time. The reaction was stopped by the addition of 50 μl of 10% TFA. The sample was applied to a C18 HPLC column developed with 0.05% TFA for 5 min followed by a gradient of 0- 40% acetonitrile in 40 min. For inhibitor studies, 10 μl of the protease solution was preincubated at 25° for 10 min with the 20 μl of 0.1 mM inhibitor (dissolved in DMSO and diluted to 0.1 mM with assay buffer). Then 20 μl of test substrate, acetyl-Thr-Ile-Met-Met-Gln-Arg-NH2 or Abz-NF^* -6, was added in order to determine inhibition of cleavage. Reactions were stopped and cleavage rates were monitored by HPLC as above. […]
Fluorescence Assay. Fluorescence measurements on 96-well ELISA plates were made with the Titertek Fluoroskan II, version 3.1. […] Ten μl of a stock solution (0.1 mg/ml) of HIV protease was incubated with five different concentrations of Abz-NF^* -6 in a final volume of 100 μl at 37° C. with the increase in fluorescence monitored in each well every five minutes. […] A standard curve relating changes in fluorescent intensity to changes in concentration of product was used to convert fluorescence changes into molar velocities. […] Sixty μl of 10% TFA was added to stop the reaction and the amount of cleavage determined by HPLC. […] By the amount of substrate remaining, an estimated Ki allows appropriate choice of concentration ranges for the inhibitor for the fluorescence assay.

synthetic HIV protease = biological target: T2, synthetic HIV protease (HIV-1 M:B_ARV2/SF2, UniProt P03369); assay: Fluorescence assay, kinetic measurements of cleavage by synthetic HIV protease; assay type: biochemical, human immunodeficiency virus (HIV)
T2 construct: homodimer
Method: Fluorescence Assay. Fluorescence measurements on 96-well ELISA plates were made with the Titertek Fluoroskan II, version 3.1. An excitation filter of 355 nm and an emission filter of 430 nm was used. Ten μl of a stock solution (0.1 mg/ml) of HIV protease was incubated with five different concentrations of Abz-NF^* -6 in a final volume of 100 μl at 37° C. with the increase in fluorescence monitored in each well every five minutes. A stock solution of 1 mM Abz-NF^* -6 in DMSO was used. A standard curve relating changes in fluorescent intensity to changes in concentration of product was used to convert fluorescence changes into molar velocities. In order to predetermine the concentration range for Ki determination of inhibitors, it was found convenient to do a preliminary assay by HPLC. Twenty μl of 0.1 mM inhibitor in assay buffer (pH 6.4) and 10 μl of HIV protease (stock solution of 0.05 mg/ml) were preincubated for 5-10 min at 25° C. Twenty μl of 0.1 mM Abz-NF^* -6 was added and the reaction continued for 1 hour. Sixty μl of 10% TFA was added to stop the reaction and the amount of cleavage determined by HPLC. […] By the amount of substrate remaining, an estimated Ki allows appropriate choice of concentration ranges for the inhibitor for the fluorescence assay.
The chromogenic substrates of Nashed et al., Biochem. Biophys. Res. Commun. 163, 1079-1085 (1989), had Km 's estimated to be greater than […].

[1] = system: purified HIV protease expressed in E. coli; conditions: estimated, Nashed et al.; cited from earlier work

SMILES: CCCC[C@H](NC(=O)[C@@H](NC(=O)c1ccccc1N)[C@@H](C)CC)C(=O)N[C@@H](Cc1ccc([N+](=O)[O-])cc1)C(=O)N[C@@H](CCC(N)=O)C(=O)N[C@@H](CCCNC(=N)N)C(N)=O [Abz-Ile-Nle-Phe(p-NO2)-Gln-Arg-NH2] (H-[2Abz]I[Nle][Phe(4-NO2)]QR-NH2)
- cleavage efficiency (HIV protease; analog with the Abz group at position P3, compared with Abz-NF*-6): dramatically reduced

SMILES: CCCC[C@H](NC(=O)[C@@H](NC(=O)[C@@H](NC(=O)c1ccccc1N)[C@@H](C)O)[C@@H](C)CC)C(=O)N[C@@H](Cc1ccc([N+](=O)[O-])cc1)C(=O)N[C@@H](CCC(N)=O)C(=O)N[C@@H](CCCNC(=N)N)C(N)=O [Abz-NF^* -6, Abz-Thr-Ile-Nle-Phe(p-NO2)-Gln-Arg-NH2] (H-[2Abz]TI[Nle][Phe(4-NO2)]QR-NH2)
- Km (synthetic HIV protease; Lineweaver-Burk plot, velocities from the linear phase): 110 µM
- Kcat (synthetic HIV protease; synthetic HIV protease): 2.9 s⁻¹
- Vmax (synthetic HIV protease; synthetic HIV protease): 3.45 mM-mil^-1
- ratio Kcat /Km (synthetic HIV protease; synthetic HIV protease): 26,364 M^-1 s^-1
- amount of cleavage determined by HPLC (HIV protease; 0.1 mM substrate, 1 hour, in the absence of inhibition): complete cleavage

SMILES: CCCC[C@H](NC(=O)[C@@H](NC(=O)[C@@H](NC(C)=O)[C@@H](C)O)[C@@H](C)CC)C(=O)N[C@@H](Cc1ccc([N+](=O)[O-])cc1)C(=O)N[C@@H](CCC(N)=O)C(=O)N[C@@H](CCCNC(=N)N)C(N)=O [Ac-Thr-Ile-Nle-Phe(p-NO2)-Gln-Arg-NH2] (Ac-TI[Nle][Phe(4-NO2)]QR-NH2)
- cleavage under the conditions of HPLC assay (HIV protease; incubation times of one hour): showed cleavage

SMILES: CC(C)C[C@H](NC(=O)[C@@H]1CCCN1C(=O)[C@H](Cc1ccc([N+](=O)[O-])cc1)NC(=O)[C@H](C)NC(=O)[C@H](CCC(N)=O)NC(=O)[C@H](Cc1ccccc1)NC(=O)[C@@H](N)[C@@H](C)O)C(=O)N[C@@H](CCCNC(=N)N)C(=O)N[C@@H](C)C(=O)O [H-Thr-Phe-Gln-Ala-Phe(p-NO2)-Pro-Leu-Arg-Ala-OH] (H-TFQA[Phe(4-NO2)]PLRA-OH)
- ratio Kcat /Km [1]: ~23,000 M^-1 s^-1
